Measurements as given in ChEMBL document CHEMBL2203227, “Macrocycles are great cycles: applications, opportunities, and challenges of synthetic macrocycles in drug discovery” (J Med Chem, 2011).
Each block holds one molecule with its values, some of them ahead of it.

Key:
[1] = Protein binding in human plasma; format: ADME, cell-free; conditions: read-out: PPB (converted)
[2] = Inhibition of HCV 1a NS3 protease; set-up: species or system Hepatitis C virus subtype 1a
[3] = Half life in rat; format: ADME, organism-based; conditions: in vivo
[4] = Oral bioavailability in rat; format: ADME, organism-based; conditions: in vivo
[5] = Half life in monkey; format: ADME, organism-based, Macaca mulatta; conditions: rhesus monkey, in vivo
[6] = Oral bioavailability in monkey; format: ADME, organism-based, Macaca mulatta; conditions: rhesus monkey, in vivo
[7] = Oral bioavailability in dog; format: ADME, organism-based, Canis lupus familiaris; conditions: in vivo
[8] = Half life in dog; format: ADME, organism-based, Canis lupus familiaris; conditions: in vivo
[9] = target: High affinity nerve growth factor receptor (Homo sapiens, UniProt P04629); assay: Inhibition of TrkA assessed as inhibition of mAb5C3 binding
[10] = target: T1, Growth hormone secretagogue receptor type 1 (Homo sapiens, UniProt Q92847); assay: Antagonist activity at ghrelin receptor assessed as inhibition of ghrelin-induced Ca2+ release by cell based assay; format: functional
[11] = target: T1, Growth hormone secretagogue receptor type 1; assay: Agonist activity at ghrelin receptor; format: functional
Hepatitis C virus [12] = assay: microbe, parasite or virus in culture; conditions: genotype 1b
Description: Antiviral activity against HCV1b by cell based replicon assay

Hepatitis C virus [13] = assay: microbe, parasite or virus in culture; conditions: subtype 1a
Description: Antiviral activity against HCV1a by cell based replicon assay

in vivo [14] = conditions: rat
in vivo [15] = conditions: rat, liver/plasma
Description: Ratio of drug level in liver to plasma of rat

[16] = target: T1, Growth hormone secretagogue receptor type 1; assay: Agonist activity at ghrelin receptor by cell based assay; format: functional
[17] = target: C-X-C chemokine receptor type 4 (Homo sapiens, UniProt P61073); assay: Antagonist activity at CXCR4; format: functional
[18] = Inhibition of HCV 3a NS3 protease; set-up: species or system Hepatitis C virus subtype 3a
Hepatitis C virus [19] = assay: Inhibition of HCV 1b NS3 protease; set-up: species or system Hepatitis C virus subtype 1b; conditions: Hepatitis C virus
[20] = Inhibition of HCV6 NS3 protease; set-up: species or system Hepatitis C virus genotype 6
[21] = Inhibition of HCV4 NS3 protease; set-up: species or system Hepatitis C virus genotype 4
[22] = Ratio of drug level in liver to plasma of monkey; format: ADME, tissue-based, Macaca mulatta; conditions: rhesus monkey
[23] = Inhibition of HCV 2b NS3 protease; set-up: species or system Hepatitis C virus subtype 2b
Hepatitis C virus [24] = assay: microbe, parasite or virus in culture
Description: Antiviral activity against HCV by cell based replicon assay

[25] = Inhibition of HCV5 NS3 protease; set-up: species or system Hepatitis C virus genotype 5
[26] = Selectivity ratio of human elastase to HCV NS3 protease
[27] = target: Cyclin-dependent kinase 2 (Homo sapiens, UniProt P24941); assay: Inhibition of CDK2
MCF7 = assay: cells; conditions: Homo sapiens
Description: Antiproliferative activity against human MCF7 cells

[28] = target: Cyclin-dependent kinase 1 (Homo sapiens, UniProt P06493); assay: Inhibition of CDK1
[29] = target: T2, Growth factor receptor-bound protein 2 (Homo sapiens, UniProt P62993); assay: Inhibition of SH2 domain of GRB2 by whole cell based assay
[30] = target: T2, Growth factor receptor-bound protein 2; assay: Inhibition of SH2 domain of GRB2 in human MDA-MB-231 cells; format: cell-based
[31] = target: T2, Growth factor receptor-bound protein 2; assay: Inhibition of SH2 domain of GRB2 in human MDA-MB-453 cells; format: cell-based
Beta-secretase 1 = Beta-secretase 1 (Homo sapiens, UniProt P56817); assay: Inhibition of BACE1 by cell based assay
[32] = Oral bioavailability in rhesus monkey; format: ADME, organism-based, Macaca mulatta; conditions: in vivo
Renin = target: T3, Renin (Homo sapiens, UniProt P00797); assay: Inhibition of renin
T3 sequence (P00797 whole entry): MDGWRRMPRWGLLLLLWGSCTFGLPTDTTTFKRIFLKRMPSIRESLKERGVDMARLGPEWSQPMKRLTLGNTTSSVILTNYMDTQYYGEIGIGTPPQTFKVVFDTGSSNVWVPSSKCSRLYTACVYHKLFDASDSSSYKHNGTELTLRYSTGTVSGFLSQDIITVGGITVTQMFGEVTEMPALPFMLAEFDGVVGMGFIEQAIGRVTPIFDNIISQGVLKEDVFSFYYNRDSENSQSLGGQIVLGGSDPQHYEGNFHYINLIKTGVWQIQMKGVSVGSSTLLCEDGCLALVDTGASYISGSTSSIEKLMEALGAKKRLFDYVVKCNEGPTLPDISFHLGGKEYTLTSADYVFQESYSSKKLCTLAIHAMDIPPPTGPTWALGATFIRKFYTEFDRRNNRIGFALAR

[33] = Antagonist activity at GABA-gated chloride channel; format: functional
[34] = target: High affinity choline transporter 1 (Homo sapiens, UniProt Q9GZV3); assay: Antagonist activity at CHT1; format: functional
D(1A) dopamine receptor = D(1A) dopamine receptor (Homo sapiens, UniProt P21728); assay: Antagonist activity at dopamine D1 receptor; format: functional
Adenosine receptor A3 = Adenosine receptor A3 (Homo sapiens, UniProt P0DMS8); assay: Antagonist activity at adenosine A3 receptor; format: functional
Chain of Adenosine receptor A3 (P0DMS8 whole entry): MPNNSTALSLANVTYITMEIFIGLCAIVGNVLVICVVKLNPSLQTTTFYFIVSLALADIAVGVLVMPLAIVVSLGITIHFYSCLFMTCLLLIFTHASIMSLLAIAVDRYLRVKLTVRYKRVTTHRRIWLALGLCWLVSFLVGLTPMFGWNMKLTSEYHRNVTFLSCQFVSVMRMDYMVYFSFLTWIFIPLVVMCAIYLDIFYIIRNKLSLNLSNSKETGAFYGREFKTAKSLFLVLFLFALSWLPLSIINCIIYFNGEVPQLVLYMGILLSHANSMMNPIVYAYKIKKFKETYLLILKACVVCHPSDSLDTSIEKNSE

T1 sequence (Q92847 whole entry): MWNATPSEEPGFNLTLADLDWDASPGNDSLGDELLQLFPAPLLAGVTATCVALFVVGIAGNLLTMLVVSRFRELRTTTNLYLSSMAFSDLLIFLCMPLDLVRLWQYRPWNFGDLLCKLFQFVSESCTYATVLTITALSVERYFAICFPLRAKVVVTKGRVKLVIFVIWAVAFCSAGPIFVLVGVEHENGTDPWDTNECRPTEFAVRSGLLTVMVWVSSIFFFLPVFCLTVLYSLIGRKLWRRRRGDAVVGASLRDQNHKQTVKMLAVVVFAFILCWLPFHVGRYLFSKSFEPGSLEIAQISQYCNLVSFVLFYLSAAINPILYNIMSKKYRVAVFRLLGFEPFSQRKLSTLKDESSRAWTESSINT
Chain of C-X-C chemokine receptor type 4 (P61073 whole entry): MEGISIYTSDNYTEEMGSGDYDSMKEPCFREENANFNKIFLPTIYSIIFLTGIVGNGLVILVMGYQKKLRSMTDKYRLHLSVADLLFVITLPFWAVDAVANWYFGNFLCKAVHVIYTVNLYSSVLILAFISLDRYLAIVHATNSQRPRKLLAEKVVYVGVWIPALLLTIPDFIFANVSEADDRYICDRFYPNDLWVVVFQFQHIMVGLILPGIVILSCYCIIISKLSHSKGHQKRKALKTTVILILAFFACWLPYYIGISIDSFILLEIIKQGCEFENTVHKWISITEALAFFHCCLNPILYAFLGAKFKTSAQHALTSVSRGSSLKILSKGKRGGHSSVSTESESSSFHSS
Chain of Cyclin-dependent kinase 1 (P06493 whole entry, the tested form may be a part): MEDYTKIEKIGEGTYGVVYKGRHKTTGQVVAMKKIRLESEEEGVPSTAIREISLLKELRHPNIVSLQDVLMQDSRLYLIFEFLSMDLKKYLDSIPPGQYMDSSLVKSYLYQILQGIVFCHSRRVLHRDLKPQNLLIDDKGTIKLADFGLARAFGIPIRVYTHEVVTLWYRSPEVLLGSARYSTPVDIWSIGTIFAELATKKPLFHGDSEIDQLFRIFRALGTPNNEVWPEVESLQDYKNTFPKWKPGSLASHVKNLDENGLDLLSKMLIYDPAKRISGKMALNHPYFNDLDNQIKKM
Chain of High affinity choline transporter 1 (Q9GZV3 whole entry): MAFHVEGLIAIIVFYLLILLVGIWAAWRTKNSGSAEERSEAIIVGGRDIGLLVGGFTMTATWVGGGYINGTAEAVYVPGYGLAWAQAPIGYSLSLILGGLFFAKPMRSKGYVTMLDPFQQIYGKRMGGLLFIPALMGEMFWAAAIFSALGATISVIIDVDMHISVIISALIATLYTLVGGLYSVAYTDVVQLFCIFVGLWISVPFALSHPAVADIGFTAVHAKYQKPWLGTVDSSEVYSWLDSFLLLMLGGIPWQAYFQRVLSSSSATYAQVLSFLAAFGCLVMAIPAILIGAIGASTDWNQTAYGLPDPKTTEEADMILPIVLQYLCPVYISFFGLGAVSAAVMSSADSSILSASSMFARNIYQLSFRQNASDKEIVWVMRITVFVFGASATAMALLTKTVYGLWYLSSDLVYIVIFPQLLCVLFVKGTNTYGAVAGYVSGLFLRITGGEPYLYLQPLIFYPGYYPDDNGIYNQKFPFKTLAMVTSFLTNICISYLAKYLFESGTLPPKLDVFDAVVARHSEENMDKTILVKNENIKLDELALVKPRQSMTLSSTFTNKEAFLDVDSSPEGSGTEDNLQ
Chain of D(1A) dopamine receptor (P21728 whole entry): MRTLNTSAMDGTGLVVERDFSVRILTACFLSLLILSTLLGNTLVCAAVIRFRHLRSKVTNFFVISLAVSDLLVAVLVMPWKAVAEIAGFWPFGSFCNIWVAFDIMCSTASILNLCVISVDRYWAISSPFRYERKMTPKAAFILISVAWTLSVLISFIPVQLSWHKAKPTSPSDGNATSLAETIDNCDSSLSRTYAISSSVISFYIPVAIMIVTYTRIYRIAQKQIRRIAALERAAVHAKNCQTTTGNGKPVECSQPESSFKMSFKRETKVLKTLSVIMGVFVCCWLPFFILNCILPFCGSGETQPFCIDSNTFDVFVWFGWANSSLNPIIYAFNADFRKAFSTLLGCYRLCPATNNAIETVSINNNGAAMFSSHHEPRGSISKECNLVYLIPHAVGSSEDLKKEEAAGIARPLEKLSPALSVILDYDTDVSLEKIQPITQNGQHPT
Chain of High affinity nerve growth factor receptor (P04629 whole entry): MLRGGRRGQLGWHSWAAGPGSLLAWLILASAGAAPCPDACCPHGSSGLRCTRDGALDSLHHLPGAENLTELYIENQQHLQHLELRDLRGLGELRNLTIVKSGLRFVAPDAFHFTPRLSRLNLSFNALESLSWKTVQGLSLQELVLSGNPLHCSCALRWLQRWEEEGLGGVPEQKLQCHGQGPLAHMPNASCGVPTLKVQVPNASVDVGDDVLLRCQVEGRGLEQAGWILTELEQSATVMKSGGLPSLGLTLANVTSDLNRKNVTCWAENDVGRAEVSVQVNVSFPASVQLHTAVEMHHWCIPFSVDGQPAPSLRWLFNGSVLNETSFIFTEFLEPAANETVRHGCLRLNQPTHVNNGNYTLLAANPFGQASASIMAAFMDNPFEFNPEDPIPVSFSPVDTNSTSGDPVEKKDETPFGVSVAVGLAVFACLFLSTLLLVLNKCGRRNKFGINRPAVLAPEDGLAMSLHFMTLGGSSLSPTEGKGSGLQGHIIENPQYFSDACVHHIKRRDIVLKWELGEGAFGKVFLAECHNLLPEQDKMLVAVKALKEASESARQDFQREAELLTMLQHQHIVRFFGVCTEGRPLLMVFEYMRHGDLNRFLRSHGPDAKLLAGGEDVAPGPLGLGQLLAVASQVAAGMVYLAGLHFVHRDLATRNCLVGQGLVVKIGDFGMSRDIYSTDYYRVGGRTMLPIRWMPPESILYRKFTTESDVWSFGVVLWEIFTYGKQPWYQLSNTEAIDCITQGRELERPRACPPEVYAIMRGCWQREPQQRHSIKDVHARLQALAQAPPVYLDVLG
Chain of Beta-secretase 1 (P56817 whole entry): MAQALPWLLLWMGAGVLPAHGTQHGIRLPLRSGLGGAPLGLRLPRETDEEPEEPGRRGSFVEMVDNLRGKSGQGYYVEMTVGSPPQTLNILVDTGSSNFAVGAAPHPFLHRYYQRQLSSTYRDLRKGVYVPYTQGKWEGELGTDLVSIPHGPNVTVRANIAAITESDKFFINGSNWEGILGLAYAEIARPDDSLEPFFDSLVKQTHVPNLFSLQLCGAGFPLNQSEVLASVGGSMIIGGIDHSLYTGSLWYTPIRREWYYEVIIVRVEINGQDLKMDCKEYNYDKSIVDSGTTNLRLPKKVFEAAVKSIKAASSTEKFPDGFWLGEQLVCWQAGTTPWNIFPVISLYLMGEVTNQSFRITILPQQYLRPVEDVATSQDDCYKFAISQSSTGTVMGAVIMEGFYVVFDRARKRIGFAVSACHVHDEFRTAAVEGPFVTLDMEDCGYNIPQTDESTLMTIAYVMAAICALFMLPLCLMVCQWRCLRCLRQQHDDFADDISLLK

- fraction unbound [1]: 0.009
- Ki [2]: 0.3 nM
- half-life [3]: 48 min
- bioavailability [4]: 13%
- half-life [5]: 420 min
- bioavailability [6]: 7%
- bioavailability [7]: 36%
- half-life [8]: 252 min
Compound: COc1ccc2c(O[C@@H]3C[C@H]4C(=O)N[C@]5(C(=O)O)C[C@H]5/C=C\CCCCC[C@H](NC(=O)OC5CCCC5)C(=O)N4C3)cc(-c3csc(NC(C)C)n3)nc2c1

- IC50 [9]: 4 µM
Compound: NCCCC[C@@H]1NC(=O)c2cc([N+](=O)[O-])ccc2NCc2ccc(C(N)=O)cc2NC(=O)[C@H](CO)NC1=O

- IC50 [10]: 500 nM
- Ki [11]: 100 nM
Compound: CC[C@H](C)[C@@H]1NCCOc2ccccc2CCCNC(=O)[C@@H](Cc2ccccc2)NC(=O)[C@H](CO)N(C)C1=O

- Ki [2]: 0.5 nM
- EC50 (Hepatitis C virus [12]): 25 nM
- half-life [3]: 240 min
- EC50 (Hepatitis C virus [13]): 28 nM
- clearance (in vivo [14]): 38 mL/min/kg
- bioavailability [7]: 100%
- half-life [8]: 306 min
- Kp (in vivo [15]): > 35
Compound: COc1ccc2c(O[C@@H]3C[C@H]4C(=O)N[C@]5(C(=O)NS(=O)(=O)C6CC6)C[C@H]5/C=C\CCCCN(C)C(=O)[C@@H]4C3)cc(-c3nc(C(C)C)cs3)nc2c1C

- EC50 [16]: 14 nM
- Ki [11]: 1 nM
Compound: CC[C@H](C)[C@@H]1NCCOc2ccccc2CCCNC(=O)[C@@H](Cc2ccc(Cl)cc2)NC(=O)[C@@H](C)N(C)C1=O

- IC50 [17]: 12.4 nM
Compound: c1ccc(CNCc2ccc(CN3CCCNCCNCCCNCC3)cc2)nc1

- IC50 [18]: 0.2 nM
- IC50 (Hepatitis C virus [19]): 0.2 nM
- IC50 [2]: 0.2 nM
- IC50 [20]: 0.2 nM
- IC50 [21]: 0.2 nM
- Kp [22]: 100
- IC50 [23]: 0.2 nM
- EC50 (Hepatitis C virus [24]): 1.8 nM
- IC50 [25]: 0.2 nM
- Kp (in vivo [15]): 10
Compound: CC(C)(C)OC(=O)N[C@H]1CCCCC/C=C\[C@@H]2C[C@@]2(C(=O)NS(=O)(=O)C2CC2)NC(=O)[C@@H]2C[C@@H](OC(=O)N3Cc4cccc(F)c4C3)CN2C1=O [DANOPREVIR]

- Selectivity ratio [26]: 2800
Compound: CC(C)(C)NC(=O)N[C@H](C(=O)N1C[C@H]2[C@@H]([C@H]1C(=O)NC(CC1CCC1)C(=O)C(N)=O)C2(C)C)C(C)(C)C (stereo partly specified)

- IC50 [27]: 100 nM
- IC50 (MCF7): 4 µM
- IC50 [28]: 100 nM
Compound: N#CCNc1nc(Nc2ccccc2)ncc1Br

- IC50 [29]: ≤ 10 nM
- IC50 [30]: > 10 µM
- IC50 [31]: 630 nM
Compound: Cc1ccc2c(ccn2C[C@@H]2C/C=C/[C@H](c3ccc(CP(=O)(O)O)cc3)[C@H](CC(=O)O)C(=O)NC3(CCCCC3)C(=O)N[C@@H](CC(N)=O)C(=O)NC2)c1

- IC50 (Beta-secretase 1): 2100 nM
Compound: CC(C)[C@H](NC(=O)OC(C)(C)C)C(=O)N[C@@H](C)C(=O)N[C@@H](Cc1ccccc1)[C@@H](O)C[C@@H](C)C(=O)N[C@H](C(=O)NCc1ccncc1)C(C)C

- bioavailability [32]: 1%
- IC50 (Renin): 1.3 nM
Compound: O=C1CCC[C@H](CN2CCOCC2)OC(=O)[C@H](O)[C@H](CC2CCCCC2)NC(=O)[C@@H](NC(=O)[C@H](Cc2ccccc2)N[C@@H]2CN3CCC2CC3)CO1

- IC50 [33]: 7.2 µM
- IC50 [34]: 3.2 µM
- IC50 (D(1A) dopamine receptor): 1100 nM
- IC50 (Adenosine receptor A3): 850 nM
Compound: Cn1c2cnc1OCC/C=C\CCCCOc1ccccc1-2
